± gives the expanded uncertainty stated by the source.
What was measured:
[1] = 101 kPa, Liquid; for speed of sound: Sing-around technique in a fixed-path interferometer; for mass density: Vibrating tube method
[2] = molar heat capacity at constant pressure; conditions: 101.33 kPa, Liquid, Small sample (50 mg) DSC
[3] = refractive index (Na D-line) (dimensionless); conditions: Liquid, Standard Abbe refractometry
[4] = xn = mol fraction of the nth substance listed; conditions: 308.15 K; 101 kPa; Liquid; Sing-around technique in a fixed-path interferometer; x1 = 1
[5] = refractive index (Na D-line) (dimensionless); xn = mol fraction of the nth substance listed; conditions: 101 kPa, Liquid, Standard Abbe refractometry, x1 = 1

| speed of sound ([1]; 288.15 K) | mass density ([1]; 288.15 K) | speed of sound ([1]; 298.15 K) | mass density ([1]; 298.15 K) | speed of sound ([1]; 308.15 K) | mass density ([1]; 308.15 K) | molar heat capacity at constant pressure ([2]; 288.15 K) | molar heat capacity at constant pressure ([2]; 298.15 K) | molar heat capacity at constant pressure ([2]; 308.15 K) | refractive index ([3]; 288.15 K, 101 kPa) | refractive index ([3]; 288.15 K, 101.33 kPa) | refractive index ([3]; 298.15 K, 101 kPa) | refractive index ([3]; 298.15 K, 101.33 kPa) | refractive index ([3]; 308.15 K, 101 kPa) | refractive index ([3]; 308.15 K, 101.33 kPa) | Compound | speed of sound [4] | refractive index ([5]; 288.15 K) | refractive index ([5]; 298.15 K) | refractive index ([5]; 308.15 K) |
| --- | --- | --- | --- | --- | --- | --- | --- | --- | --- | --- | --- | --- | --- | --- | --- | --- | --- | --- | --- |
| 1774.5 ± 1.5 m/s | 1225.93 ± 0.54 kg/m3 | 1745.2 ± 1.5 m/s | 1219.26 ± 0.53 kg/m3 | 1718.4 ± 1.5 m/s | 1212.65 ± 0.52 kg/m3 | 399 ± 8 J/K/mol | 412 ± 8 J/K/mol | 420 ± 8 J/K/mol | 1.51631 ± 0.00053 | 1.51631 ± 0.00053 | 1.5135 ± 0.00053 | 1.5135 ± 0.00053 | 1.51067 ± 0.00053 | 1.51067 ± 0.00053 | CCOS(=O)(=O)[O-].CCc1cccc[n+]1CC [1,2-diethylpyridinium ethylsulfate] |  |  |  |  |
| 1484.6 ± 1.4 m/s | 1260.33 ± 0.58 kg/m3 | 1460.1 ± 1.4 m/s | 1252.98 ± 0.57 kg/m3 | 1436.7 ± 1.4 m/s | 1245.78 ± 0.56 kg/m3 | 424 ± 8 J/K/mol | 435 ± 9 J/K/mol | 441 ± 9 J/K/mol | 1.43557 ± 0.00052 |  | 1.43289 ± 0.00052 |  | 1.43018 ± 0.00052 |  | CCCC[N+]1(C)CCCC1.O=S(=O)([O-])C(F)(F)F [1-butyl-1-methylpyrrolidinium trifluoromethanesulfonate] |  |  |  |  |
| 1414.3 ± 1.4 m/s | 1307.5 ± 0.63 kg/m3 | 1391.4 ± 1.4 m/s | 1299.55 ± 0.62 kg/m3 | 1369.1 ± 1.4 m/s | 1291.62 ± 0.61 kg/m3 |  |  |  | 1.44032 ± 0.00053 | 1.44032 ± 0.00053 | 1.43755 ± 0.00053 | 1.43755 ± 0.00053 | 1.43475 ± 0.00053 | 1.43475 ± 0.00053 | CCCCn1cc[n+](C)c1.O=S(=O)([O-])C(F)(F)F [1-butyl-3-methylimidazolium trifluoromethanesulfonate] |  |  |  |  |
| 1436.1 ± 1.4 m/s | 1287.07 ± 0.61 kg/m3 | 1412.3 ± 1.4 m/s | 1279.41 ± 0.6 kg/m3 | 1389.6 ± 1.4 m/s | 1271.8 ± 0.59 kg/m3 | 496 ± 10 J/K/mol | 520 ± 10 J/K/mol | 535 ± 11 J/K/mol | 1.46446 ± 0.00053 | 1.46446 ± 0.00053 | 1.46155 ± 0.00053 | 1.46155 ± 0.00053 | 1.45868 ± 0.00053 | 1.45868 ± 0.00053 | CCCC[n+]1cccc(C)c1.O=S(=O)([O-])C(F)(F)F [1-butyl-3-methylpyridinium trifluoromethanesulfonate] |  |  |  |  |
| 1901.1 ± 1.5 m/s | 1352.86 ± 0.69 kg/m3 | 1875.8 ± 1.5 m/s | 1346.12 ± 0.68 kg/m3 | 1852.4 ± 1.5 m/s | 1339.37 ± 0.67 kg/m3 | 288 ± 6 J/K/mol | 299 ± 6 J/K/mol | 305 ± 6 J/K/mol | 1.51603 ± 0.00052 | 1.51603 ± 0.00052 | 1.5134 ± 0.00052 | 1.5134 ± 0.00052 | 1.51077 ± 0.00052 | 1.51077 ± 0.00052 | COS(=O)(=O)[O-].C[n+]1ccccc1 [1-methylpyridinium methylsulfate] |  |  |  |  |
|  |  |  |  |  |  |  |  |  |  |  |  |  |  |  | O [water] + CCCCCCn1cc[n+](C)c1.N#CN=C=[N-] | 1522.3 ± 1 m/s | 1.33349 ± 0.00041 | 1.33255 ± 0.00042 | 1.33131 ± 0.00042 |
|  |  |  |  |  |  |  |  |  |  |  |  |  |  |  | O [water] + CCCC[N+]1(C)CCCC1.N#CN=C=[N-] | 1522.3 ± 1 m/s | 1.33349 ± 0.00041 | 1.33255 ± 0.00042 | 1.33131 ± 0.00042 |
|  |  |  |  |  |  |  |  |  |  |  |  |  |  |  | O [water] + CCCC[N+]1(C)CCCC1.O=S(=O)([O-])C(F)(F)F | 1522.3 ± 1 m/s | 1.33349 ± 0.00041 | 1.33255 ± 0.00042 | 1.33131 ± 0.00042 |
|  |  |  |  |  |  |  |  |  |  |  |  |  |  |  | O [water] + CCCC[n+]1cccc(C)c1.O=S(=O)([O-])C(F)(F)F | 1522.3 ± 1 m/s | 1.33349 ± 0.00041 | 1.33255 ± 0.00042 | 1.33131 ± 0.00042 |
|  |  |  |  |  |  |  |  |  |  |  |  |  |  |  | O [water] + CCCCn1cc[n+](C)c1.N#CN=C=[N-] | 1522.3 ± 1 m/s | 1.33349 ± 0.00041 | 1.33255 ± 0.00042 | 1.33131 ± 0.00042 |
|  |  |  |  |  |  |  |  |  |  |  |  |  |  |  | O [water] + CCCCn1cc[n+](C)c1.O=S(=O)([O-])C(F)(F)F | 1522.3 ± 1 m/s | 1.33349 ± 0.00041 | 1.33255 ± 0.00042 | 1.33131 ± 0.00042 |
|  |  |  |  |  |  |  |  |  |  |  |  |  |  |  | O [water] + CCOS(=O)(=O)[O-].CCc1cccc[n+]1CC | 1522.3 ± 1 m/s | 1.33349 ± 0.00041 | 1.33255 ± 0.00042 | 1.33131 ± 0.00042 |
|  |  |  |  |  |  |  |  |  |  |  |  |  |  |  | O [water] + COS(=O)(=O)[O-].C[n+]1ccccc1 | 1522.3 ± 1 m/s | 1.33349 ± 0.00041 | 1.33255 ± 0.00042 | 1.33131 ± 0.00042 |

| Compound | speed of sound ([1]; 288.15 K) | mass density ([1]; 288.15 K) | speed of sound ([1]; 298.15 K) | mass density ([1]; 298.15 K) | speed of sound ([1]; 308.15 K) | mass density ([1]; 308.15 K) | molar heat capacity at constant pressure ([2]; 288.15 K) | molar heat capacity at constant pressure ([2]; 298.15 K) | molar heat capacity at constant pressure ([2]; 308.15 K) | refractive index ([3]; 288.15 K, 101 kPa) | refractive index ([3]; 288.15 K, 101.33 kPa) | refractive index ([3]; 298.15 K, 101 kPa) | refractive index ([3]; 298.15 K, 101.33 kPa) | refractive index ([3]; 308.15 K, 101 kPa) | refractive index ([3]; 308.15 K, 101.33 kPa) | speed of sound [4] | refractive index ([5]; 288.15 K) | refractive index ([5]; 298.15 K) | refractive index ([5]; 308.15 K) |
| --- | --- | --- | --- | --- | --- | --- | --- | --- | --- | --- | --- | --- | --- | --- | --- | --- | --- | --- | --- |
| CCCC[N+]1(C)CCCC1.N#CN=C=[N-] [1-butyl-1-methylpyrrolidinium dicyanamide] | 1836.9 ± 2.3 m/s | 1019.17 ± 1.1 kg/m3 | 1811.1 ± 2.3 m/s | 1013.53 ± 1.1 kg/m3 | 1781.9 ± 2.3 m/s | 1007.93 ± 1.1 kg/m3 | 473 ± 9 J/K/mol | 502 ± 10 J/K/mol | 521 ± 10 J/K/mol | 1.49968 ± 0.00063 | 1.49968 ± 0.00063 | 1.49681 ± 0.00063 | 1.49681 ± 0.00063 | 1.49392 ± 0.00064 | 1.49392 ± 0.00064 |  |  |  |  |
| CCCCn1cc[n+](C)c1.N#CN=C=[N-] [1-butyl-3-methylimidazolium dicyanamide] | 1764.3 ± 2.3 m/s | 1066.58 ± 1.3 kg/m3 | 1738.1 ± 2.3 m/s | 1060.17 ± 1.2 kg/m3 | 1713.1 ± 2.3 m/s | 1053.83 ± 1.2 kg/m3 | 367 ± 7 J/K/mol | 376 ± 8 J/K/mol | 381 ± 8 J/K/mol | 1.51213 ± 0.00065 | 1.51213 ± 0.00065 | 1.50893 ± 0.00065 | 1.50893 ± 0.00065 | 1.50578 ± 0.00065 | 1.50578 ± 0.00065 |  |  |  |  |
| CCCCCCn1cc[n+](C)c1.N#CN=C=[N-] [1-hexyl-3-methylimidazolium dicyanamide] | 1713.4 ± 3.2 m/s | 1034.76 ± 2.6 kg/m3 | 1687.7 ± 3.2 m/s | 1028.56 ± 2.6 kg/m3 | 1662.7 ± 3.2 m/s | 1022.4 ± 2.5 kg/m3 | 510 ± 10 J/K/mol | 534 ± 11 J/K/mol | 548 ± 11 J/K/mol | 1.50729 ± 0.00079 | 1.50729 ± 0.00079 | 1.50415 ± 0.00079 | 1.50415 ± 0.00079 | 1.501 ± 0.00079 | 1.501 ± 0.00079 |  |  |  |  |

Source: the NIST ThermoML archive (doi:10.1021/je201334p)
